Measurements: publication doi:10.1101/2024.05.16.594348v1 (bioRxiv, 2024)
Where a SMILES comes first, the peptide text is derived from it. [ ]: non-standard residue; d: D form. βAla = NCCC(=O)O

Columns and labels:
hUVECs [1] = assay: Viability of hUVECs in peptide-crosslinked PEG hydrogels; assay type: cell-based, human
hMSCs [2] = assay: Peptide degradation in Cells condition with MMP-14 inhibitor, hMSCs; assay type: in vitro ADME, human; conditions: 50 μM peptide, MMP-14 inhibitor NSC 405020, 24 h, LCMS; text to Fig. 4
hMSCs [3] = assay: Peptide degradation in media on top of cells; assay type: in vitro ADME, human; conditions: 24 h, LCMS
hUVECs [4] = assay: Peptide degradation in media on top of cells; assay type: in vitro ADME, human; conditions: 24 h, LCMS
[5] = Peptide degradation in cell-free conditioned media; assay type: in vitro ADME, human; conditions: initial peptide library, 24 h, LCMS, text to Fig. 2B
hMSCs [6] = assay: Cell spreading of hMSCs in peptide-crosslinked PEG hydrogels; assay type: cell-based, human; conditions: PEG hydrogels containing hMSCs or hUVECs at 20 million cells/mL, up to Day 7
[7] = Peptide degradation in cell-free conditioned media; assay type: in vitro ADME, human; conditions: initial peptide library, 24 h, LCMS, text to Fig. 2B; remark: listed apart in the source
[8] = individually synthesized peptides, 50 μM, text to Fig. 4
[9] = initial peptide library, text to Fig. 2B

Row | Compound | hUVEC cell number after seven days in crosslinked gels, difference (hUVECs [1]; PanMMP compared with the KLVAD peptides, DNA quantification, Fig. 6D) | hUVEC metabolic activity after seven days in crosslinked gels (hUVECs [1]; compared with the KLVAD peptides, alamarBlue, Fig. 6C) | degradation in the Cells + Inhibitor condition, hMSCs (hMSCs [2]) [%] | degradation in the cells condition, hMSCs (hMSCs [3]; [8]) [%] | degradation in the cells condition, hMSCs (hMSCs [3]; [9]) [%] | degradation in the cells condition, hUVECs (hUVECs [4]; [9]) [%] | degradation in the cells condition, hUVECs (hUVECs [4]; [8]) [%] | degradation in media condition, hUVEC [5] | cytotoxicity of hydrogels crosslinked by the peptide (hMSCs [6]) | degradation in media condition, hMSC [7]
1 | GPQGIWGQ [PanMMP, reference compound] | not significant | higher metabolic activity | 22 | 65 | 61 | 31 |  |  |  | 
2 | CSCC[C@H](NC(=O)[C@H](CC(C)C)NC(=O)[C@H](CC(=O)O)NC(=O)[C@H](C)NC(=O)[C@@H](NC(=O)[C@H](CC(C)C)NC(=O)[C@H](CCCCN)NC(=O)CCNC(C)=O)C(C)C)C(=O)N[C@@H](C)C(=O)N[C@@H](CO)C(=O)N[C@@H](C)C(=O)N[C@@H](CCC(=O)O)C(=O)NCCC(N)=O [KLVAD-LM] (Ac-[βAla]KLVADLMASAE[βAla]-NH2) |  |  |  | 54 |  |  | 16 |  |  | 
3 | KLVADNYASAE |  |  |  | 22 | 30 | 8 | 4 | less than 3% | cytotoxic | less than 3%
